This note sets out measurements from ChEMBL document CHEMBL4184195, “Influence of hydrocarbon-stapling on membrane interactions of synthetic antimicrobial peptides” (Bioorg Med Chem, 2018).

Data set [1] concerns Escherichia coli. The experiment in a line: Antibacterial activity against Escherichia coli BL21 after 20 hrs by two fold serial dilution method. In kind it is functional. To be noted: BL21, 20 h.
The subject of the next data set is Erythrocyte. The data set is described as follows: Hemolytic activity in human RBC after 1 hr. In kind it is ADME, cell-based.
Data set [2] can be described thus: Therapeutic index, ratio of MHC for human RBC to MIC for Escherichia coli BL21. In kind it is toxicity. To be noted: read-out: TI.
Data set [3] has as its system Escherichia coli. The data set is described as follows: Growth inhibition of Escherichia coli BL21 at 2 uM after 2 hrs relative to 6K-F17. It counts as functional. To be noted: for inhibition of growth at 2 µM: BL21, BL21, 2 h, read-out: GI.
Data set [4] has as its system Escherichia coli. The data set is described as follows: Time dependent inhibition of Escherichia coli BL21 at 8 uM. It counts as functional, organism-based.
The nature of data set [5]: Binding affinity to SDS detergent micelles assessed as reduction in blue shift at 10 uM by tryptophan fluorescence-based fluorometry.
Data set [6] relates to Lipid bilayer. The experiment in a line: Binding affinity to Escherichia coli large unilamellar vesicles assessed as reduction in blue shift at 10 uM by tryptophan fluorescence-based fluorometry.
The subject of data set [7] is Lipid bilayer. The experiment in a line: Binding affinity to POPC liposome membranes assessed as reduction in blue shift at 10 uM by tryptophan fluorescence-based fluorometry.
Data set [8] relates to Lipid bilayer. The data set is described as follows: Binding affinity to Escherichia coli large unilamellar vesicles assessed as change in spectral line shape by 31P solid-state NMR spectroscopic analysis.
Data set [9] deals with Lipid bilayer. The experiment in a line: Binding affinity to POPC liposome membranes assessed as change in spectral lineshape by 31P solid-state NMR spectroscopic analysis.
The subject of data set [10] is Escherichia coli. The data set is described as follows: Time dependent inhibition of Escherichia coli BL21 at 4 uM. In kind it is functional, organism-based.
A short description of data set [11]: Hemolytic activity in human RBC at 4 uM after 1 hr. It counts as ADME, cell-based, Erythrocyte. The conditions noted are these: red blood cells (erythrocytes), read-out: Activity.
In data set [12] the test system is Escherichia coli. The data set is described as follows: Time dependent inhibition of Escherichia coli BL21 at 2 uM. It counts as functional, organism-based.

≈ marks a conversion by molar mass, not a printed value. Calls of active or inactive are those of the source. The calls are words filed in the database; no cut-off is given here. Bridge positions count the residues as written; N and C are the ends. Square brackets hold non-standard residues; d marks the D form. Peptide text beside a SMILES is read from it. S5 = C=CCCC[C@](C)(N)C(=O)O

In the case of `C[C@H](NC(=O)CNC(=O)[C@H](Cc1ccccc1)NC(=O)[C@]1(C)CCC/C=C\CCC[C@](C)(NC(=O)[C@H](Cc2ccccc2)NC(=O)CNC(=O)[C@H](C)NC(=O)[C@H](CCCCN)NC(=O)[C@H](CCCCN)NC(=O)[C@H](CCCCN)NC(=O)[C@H](CCCCN)NC(=O)[C@H](CCCCN)NC(=O)[C@@H](N)CCCCN)C(=O)N[C@@H](C)C(=O)N[C@@H](Cc2c[nH]c3ccccc23)C(=O)NCC(=O)N1)C(N)=O` (H-KKKKKKAGF[S5]AWG[S5]FGA-NH2; staple (Z) 10-14), the MIC in the data set on Escherichia coli [1] was determined as 4.2 µM (≈ 7.99 µg/mL). This molecule also had an MHC in the data set on Erythrocyte of 128 µM. The selectivity ratio in data set [2] stood at 30.8. For the same molecule, the inhibition of growth at 2 µM with Escherichia coli [3] is not above 40%. Besides, the inhibition result in the data set on Escherichia coli [4] is “Active”. The outcome (in [5]; with Lipid bilayer [6]) was Active. Moreover, the result in the data set on Lipid bilayer [7] was inactive.
`C[C@H](NC(=O)CNC(=O)[C@H](Cc1ccccc1)NC(=O)[C@]1(C)CCC/C=C\CCC[C@](C)(NC(=O)[C@H](Cc2ccccc2)NC(=O)CNC(=O)[C@H](CC(N)=O)NC(=O)[C@H](CCCCN)NC(=O)[C@H](CCCCN)NC(=O)[C@H](CCCCN)NC(=O)[C@H](CCCCN)NC(=O)[C@H](CCCCN)NC(=O)[C@@H](N)CCCCN)C(=O)N[C@@H](C)C(=O)N[C@@H](Cc2c[nH]c3ccccc23)C(=O)NCC(=O)N1)C(N)=O` (H-KKKKKKNGF[S5]AWG[S5]FGA-NH2; staple (Z) 10-14): the MIC in the data set on Escherichia coli [1] amounted to 4.2 µM (≈ 8.17 µg/mL). The molecule further registered an MHC with Erythrocyte of 587 µM. In addition, the selectivity ratio in data set [2] came to 140. In the data set on Escherichia coli [3], the inhibition of growth at 2 µM was not above 40%. The inhibition result with Escherichia coli [4] was “Active”. The outcome (in data set [5]; in the data set on Lipid bilayer [7]; with Lipid bilayer [9]) was inactive. In addition, the result in the data set with Lipid bilayer [6] and with Lipid bilayer [8] was Active.
For H-KKKKKKAAFAAWAAFAA-NH2, 1.6 µM was the least that counted as inhibitory against Escherichia coli [1] (MIC). Also, in the data set with Erythrocyte, the MHC was 320 µM. In addition, the selectivity ratio in [2] was determined as 200. In the data set on Escherichia coli [3], the “growth inhibition (GI)” value was “Active”. The inhibition entry in the data set on Escherichia coli [10] was “Active”. Also, the outcome (in data set [5]; in the data set with Lipid bilayer [6]; in the data set with Lipid bilayer [8]; with Lipid bilayer [9]) was Active. For the same molecule, the outcome in the data set with Lipid bilayer [7] was inactive.
For `C[C@H](NC(=O)[C@H](C)NC(=O)[C@H](Cc1ccccc1)NC(=O)[C@]1(C)CCC/C=C\CCC[C@](C)(NC(=O)[C@H](Cc2ccccc2)NC(=O)[C@H](C)NC(=O)[C@H](C)NC(=O)[C@H](CCCCN)NC(=O)[C@H](CCCCN)NC(=O)[C@H](CCCCN)NC(=O)[C@H](CCCCN)NC(=O)[C@H](CCCCN)NC(=O)[C@@H](N)CCCCN)C(=O)N[C@@H](C)C(=O)N[C@@H](Cc2c[nH]c3ccccc23)C(=O)N[C@@H](C)C(=O)N1)C(N)=O` (H-KKKKKKAAF[S5]AWA[S5]FAA-NH2; staple (Z) 10-14), the MIC against Escherichia coli [1] was found to be 1 µM (≈ 1.94 µg/mL). This molecule returned an MHC in the data set on Erythrocyte of 3.8 µM. Further, the hemolysis at 1 h, 4 µM in [11] amounted to 2%. For the same molecule, the selectivity ratio in data set [2] is 3.8. Moreover, the inhibition of growth at 2 µM in the data set on Escherichia coli [3] was not above 40%. The result in data set [5] was Active. The outcome with Lipid bilayer [6] and with Lipid bilayer [7] was inactive. For the same molecule, the inhibition entry in the data set with Escherichia coli [12] is “Active”.
On to `C[C@H](NC(=O)CNC(=O)[C@H](Cc1ccccc1)NC(=O)[C@]1(C)CCC/C=C\CCC[C@](C)(NC(=O)[C@H](Cc2ccccc2)NC(=O)CNC(=O)[C@H](C)NC(=O)[C@H](CCCCN)NC(=O)[C@H](CCCCN)NC(=O)[C@H](CCCCN)NC(=O)[C@H](CCCCN)NC(=O)[C@H](CCCCN)NC(=O)[C@@H](N)CCCCN)C(=O)N[C@@H](C)C(=O)N[C@@H](Cc2c[nH]c3ccccc23)C(=O)N[C@@H](C)C(=O)N1)C(N)=O` (H-KKKKKKAGF[S5]AWA[S5]FGA-NH2; staple (Z) 10-14), for which the MIC with Escherichia coli [1] is 1.6 µM (≈ 3.06 µg/mL). For the same molecule, the MHC in the data set with Erythrocyte was 15 µM. Besides, the selectivity ratio in [2] amounted to 9.4. For the same molecule, in the data set on Escherichia coli [3], the inhibition of growth at 2 µM is not above 40%. Further, the inhibition result with Escherichia coli [10] was “Active”. In addition, the outcome (in data set [5]; in the data set with Lipid bilayer [6]) was Active. The result with Lipid bilayer [7] was inactive.

A word on the MIC: it is the least concentration at which growth counts as inhibited.
